The term IC50 denotes the concentration that gives 50% inhibition. As a reminder, the melting point is the temperature, or range, at which the solid turns liquid. The term CC50 denotes the concentration giving 50% cytotoxicity.

Where “and” joins values, the source holds several entries; their conditions need not be identical. Equal entries are not always repeated.

16 molecules from paper PMC10444817, “New proapoptotic chemotherapeutic agents based on the quinolone-3-carboxamide scaffold acting by VEGFR-2 inhibition” (Scientific Reports, 2023) can be followed below.

One data set addresses VEGFR-2 (Homo sapiens, UniProt P35968). Kind of data set: VEGFR-2 kinase inhibition assay (Kinase-Glo MAX luminescence kit, BPS Bioscience). To be noted: for IC50: VEGFR-2 inhibitory activity IC50, average of 3 independent runs ± SE; for Fold increase in VEGFR-2 inhibitory activity compared to para methyl substituted derivatives 10b and 10k: 4-isopropyl vs 4-CH3 analogue. For orientation: In Kinase-Glo more light means more ATP remaining.

Data set [1] concerns HepG2 cells. The data set is described as follows: MTT cytotoxicity against HepG2 tumor cell line. To be noted: read-out: Cytotoxic activity against HepG2 cell line IC50, 48 h, average of 3 independent runs ± SE.
Data set [2] has as its system Transformed Human Liver Epithelial-2 normal cell line (THLE-2). Kind of data set: MTT cytotoxicity against THLE-2 normal liver cell line. To be noted: CC50 (THLE-2) / IC50 (HepG2). The class given is cell-based. Here is the method:
(§1) The produced formazan was measured by means of the spectrophotometer ROBONIK P2000 at a wavelength of 570 nm. The Cytotoxic concentration values (CC50) of the assessed compounds were reported as the mean of three independent runs ± SE[69].

Test in data set [3]: as above
To be noted: human, THLE-2 normal liver epithelial cells; MTT, 48 h; measured in triplicates; read-out: CC50 cytotoxic activity against THLE-2 normal cell line. It is filed as cell-based, human. Here is the method: as §1

Another data set relates to Bax. Kind of data set: Western blotting of Bax protein expression in HepG2 cells. It is filed as cell-based, human. To be noted: HepG2, 48 h at IC50 concentration; normalized to β-actin. The protocol:
(§2) Western blotting was performed to assess the relative normalized protein expression of the apoptotic proteins Bax and Caspase-7 in HepG2 cancer cells when pre-treated for 48 h with compound 10i at its IC50 concentration in comparison to non-treated HepG2 cells. […] The current findings provide strong evidence for the positive apoptotic activity of compound 10i in HepG2 cells that accompanies its inhibitory activity on cell proliferation.
(§3) Cells were harvested and washed with phosphate buffer saline (PBS). The cells were then lysed in 10 mM Tris–HCl, 100 mM NaCl, 0.5% Triton X-100, pH 7.6 with EDTA-free Protease Inhibitor Cocktail. This was followed by a centrifugation step at 13,000g for 20 min at 4 °C and direct transfer to sodium dodecyl sulfate–polyacrylamide gel (SDS–PAGE). Western blot analysis was performed using primary antibodies against the target proteins and HRP-conjugated secondary antibodies (Table 12). The chemiluminescence reaction was performed using the ECL western blot HRP substrate (Pierce, Thermo Fisher Scientific). Finally, densitometric quantification of Western blot protein bands were performed with IMAGEJ Software.
In general terms: Immunoblotting shows a protein as a band on a membrane.

Another data set relates to VEGFR-2 gene. The data set is described as follows: RT-qPCR of VEGFR-2 gene expression in HepG2 cells. It is filed as cell-based, human. To be noted: HepG2, 48 h at IC50 concentration; normalized to β-actin. The protocol: RT-qPCR was performed to assess the relative normalized gene expression of VEGFR-2 gene in HepG2 cancer cells when pre-treated for 48 h with compound 10i at its IC50 concentration utilizing non-treated HepG2 cells as negative control.
Total RNA was isolated from both 10i-treated and untreated HepG2 cell line pellets using Qiagen RNeasy Mini kit Cat# No. 74104 according to the manufacturer’s guidelines. Then, quantification and quality assessment of the isolated RNA samples were determined by the Nanodrop spectrophotometer at A230, A260 and A280.
cDNA synthesis was performed for RNA using the Promega cDNA Synthesis AMV Reverse Transcriptase Kit (cat# M5108) according to the manufacturer’s instructions. The cDNA synthesis was performed on Bio-Rad 100 Thermal cycler.
Primers for the VEGFR-2 gene were designed and synthesized followed by primer validation and optimization of PCR amplification conditions. RT-qPCR expression analysis for the required genes (ß-actin and VEGFR-2) has been done using the Qiagen Quanti Nova SYBR Green PCR Kit (cat # 208052).

The subject of a further data set is Caspase-7. Kind of data set: Western blotting of Caspase-7 protein expression in HepG2 cells. To be noted: HepG2, 48 h at IC50 concentration; normalized to β-actin. The class given is cell-based, human. The protocol: as §2, §3
Data set [4] concerns HepG2 cells. The data set is described as follows: Cell cycle analysis by DNA flow cytometry. To be noted: HepG2, 48 h at IC50 concentration; frequency of cells, triplicate ± SD. The class given is cell-based, human. Here is the method:
DNA flow cytometry was used to analyze the cell cycle kinetics of HepG2 cancer cells when pre-treated for 48 h with compound 10i at its IC50 concentration. Non-treated HepG2 cells were considered as negative control.
The assay was performed as previously mentioned. In brief, HepG2 cells were pre-incubated with compound 10i at its IC50 concentration for 48 h. Then, about 10^5 cells were attained by trypsinization and washed with phosphate buffer saline (PBS). This was followed by a resuspension step with 60% ice-cold ethanol and incubation till fixation occurs. The fixed cells were washed again and resuspended in a buffer that included 50 μg/mL RNAase A and 10 μg/mL propidium iodide. Finally, cells were incubated at 37 °C in the dark for 20 min and analyzed for the cell cycle kinetics using flow cytometry where FL2 (λex/em 535/617 nm) was used as the signal detector (ACEA Novocyt flowcytometer, ACEA Biosciences Inc., San Diego, CA, USA). A query of 12,000 events was recommended for each sample. ACEA NovoExpress software (ACEA Biosciences Inc., San Diego, CA, USA) was used for analysis.
A general note: In flow cytometry, cells or beads pass a laser one at a time.

VEGFR-2, sequence (P35968 20-1356): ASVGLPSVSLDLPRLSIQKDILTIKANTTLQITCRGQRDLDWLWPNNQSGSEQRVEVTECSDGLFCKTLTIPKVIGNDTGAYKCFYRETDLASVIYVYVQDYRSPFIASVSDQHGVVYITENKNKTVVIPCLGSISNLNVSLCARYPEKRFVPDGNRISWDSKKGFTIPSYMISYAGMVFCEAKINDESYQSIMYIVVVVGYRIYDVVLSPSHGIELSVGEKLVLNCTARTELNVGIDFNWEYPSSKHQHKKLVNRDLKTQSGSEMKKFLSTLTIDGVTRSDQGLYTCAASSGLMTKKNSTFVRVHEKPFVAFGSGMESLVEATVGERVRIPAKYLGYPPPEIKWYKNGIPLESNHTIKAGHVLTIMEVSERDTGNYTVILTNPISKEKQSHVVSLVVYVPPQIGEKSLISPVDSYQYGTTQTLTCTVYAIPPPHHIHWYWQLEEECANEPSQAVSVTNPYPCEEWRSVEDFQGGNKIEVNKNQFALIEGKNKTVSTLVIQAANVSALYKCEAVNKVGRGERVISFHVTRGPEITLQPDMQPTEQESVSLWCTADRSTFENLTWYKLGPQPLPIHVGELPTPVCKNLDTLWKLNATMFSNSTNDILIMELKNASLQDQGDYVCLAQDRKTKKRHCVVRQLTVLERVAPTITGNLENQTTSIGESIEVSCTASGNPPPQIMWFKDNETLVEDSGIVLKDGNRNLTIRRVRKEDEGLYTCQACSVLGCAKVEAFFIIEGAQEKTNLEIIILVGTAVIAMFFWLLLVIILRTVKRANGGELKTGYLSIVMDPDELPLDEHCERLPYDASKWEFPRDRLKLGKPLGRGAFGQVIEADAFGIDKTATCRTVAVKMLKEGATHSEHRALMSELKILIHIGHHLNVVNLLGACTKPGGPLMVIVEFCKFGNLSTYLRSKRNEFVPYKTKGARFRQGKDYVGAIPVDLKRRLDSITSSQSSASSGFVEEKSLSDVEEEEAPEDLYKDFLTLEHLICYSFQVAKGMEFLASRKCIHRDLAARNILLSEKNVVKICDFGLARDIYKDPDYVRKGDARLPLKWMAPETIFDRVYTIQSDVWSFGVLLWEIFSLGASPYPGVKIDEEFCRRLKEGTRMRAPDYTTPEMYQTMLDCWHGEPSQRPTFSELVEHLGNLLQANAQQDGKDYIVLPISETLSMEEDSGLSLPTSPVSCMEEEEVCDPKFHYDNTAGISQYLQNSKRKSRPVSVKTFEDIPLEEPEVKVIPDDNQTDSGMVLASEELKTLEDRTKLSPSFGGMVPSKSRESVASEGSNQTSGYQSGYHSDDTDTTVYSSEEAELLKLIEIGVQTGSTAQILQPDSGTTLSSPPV

As to `O=C(Nc1ccc(F)cc1)Nc1ccc(NC(=O)c2c[nH]c3ccc(Cl)cc3c2=O)cc1` [Compound 10e, 6-Chloro-N-(4-(3-(4-fluorophenyl)ureido)phenyl)-4-oxo-1,4-dihydroquinoline-3-carboxamide], the melting point was > 300 °C. The IC50 against VEGFR-2 was 197 nM and 179 nM. The IC50 in the data set on HepG2 cells [1] stood at 0.88 ± 0.05 µM.

As to `CC(C)c1ccc(NC(=O)Nc2ccc(NC(=O)c3c[nH]c4ccc(F)cc4c3=O)cc2)cc1` [Compound 10p, 6-Fluoro-N-(4-(3-(4-isopropylphenyl)ureido)phenyl)-4-oxo-1,4-dihydroquinoline-3-carboxamide], the melting point was > 300 °C. In addition, on VEGFR-2, the “Fold increase in VEGFR-2 inhibitory activity compared to para methyl substituted derivatives 10b and 10k” value is reported as “more than 16 fold”; half-maximal inhibition (IC50) required 97 ± 0.01 nM. Besides, in the data set with HepG2 cells [1], the IC50 worked out at 8.14 ± 0.47 µM.

With `O=C(Nc1ccccc1)Nc1ccc(NC(=O)c2c[nH]c3ccc(Cl)cc3c2=O)cc1` [Compound 10a, 6-Chloro-4-oxo-N-(4-(3-phenylureido)phenyl)-1,4-dihydroquinoline-3-carboxamide], the melting point was > 300 °C. At VEGFR-2, this molecule gave an IC50 of 138 ± 0.01 nM. For the same molecule, the IC50 in the data set with HepG2 cells [1] came to 4.6 ± 0.28 µM.

Take `O=C(Nc1ccc(NC(=O)c2c[nH]c3ccc(Cl)cc3c2=O)cc1)Nc1ccc2ncsc2c1` [Compound 10h, N-(4-(3-(Benzo[d]thiazol-6-yl)ureido)phenyl)-6-chloro-4-oxo-1,4-dihydroquinoline-3-carboxamide]: the melting point was > 300 °C. For the same molecule, the IC50 at VEGFR-2 amounted to 937 ± 0.04 nM. In addition, on VEGFR-2 (benzothiazole derivative, comparator not named), the “Fold decrease in VEGFR-2 inhibitory activity” value is recorded as “about 5.5 fold”. The IC50 in the data set on HepG2 cells [1] came to 14.9 ± 0.52 µM.

Take `O=C(Nc1ccccc1)Nc1ccc(NC(=O)c2c[nH]c3ccc(F)cc3c2=O)cc1` [Compound 10j, 6-Fluoro-4-oxo-N-(4-(3-phenylureido)phenyl)-1,4-dihydroquinoline-3-carboxamide]: the melting point is > 300 °C. The same molecule showed an IC50 at VEGFR-2 of 340 ± 0.01 nM. Moreover, the IC50 with HepG2 cells [1] stood at 41.9 ± 2.52 µM.

Consider `Cc1cccc(NC(=O)Nc2ccc(NC(=O)c3c[nH]c4ccc(F)cc4c3=O)cc2)c1` [Compound 10l, 6-Fluoro-4-oxo-N-(4-(3-(m-tolyl)ureido)phenyl)-1,4-dihydroquinoline-3-carboxamide], for which the melting point is > 300 °C. At VEGFR-2, this molecule registered an IC50 of 317 ± 0.01 nM. In the data set with HepG2 cells [1], the IC50 came out at 14.2 ± 0.82 µM.

Take `O=C(Nc1ccc(NC(=O)c2c[nH]c3ccc(F)cc3c2=O)cc1)Nc1cccc(C(F)(F)F)c1` [Compound 10o, 6-Fluoro-4-oxo-N-(4-(3-(3-(trifluoromethyl)phenyl)ureido)phenyl)-1,4-dihydroquinoline-3-carboxamide]: the melting point is > 300 °C. Further, the “Selectivity index (SI)” value in data set [2] is 5.52. Moreover, the CC50 at 48 h in data set [3] is 15.2 µM. Besides, at VEGFR-2, the IC50 came to 38 ± 0.02 nM. Besides, the IC50 in the data set on HepG2 cells [1] came to 2.76 ± 0.1 µM.

Regarding `N#Cc1ccc(NC(=O)Nc2ccc(NC(=O)c3c[nH]c4ccc(Cl)cc4c3=O)cc2)cc1` [Compound 10g, 6-Chloro-N-(4-(3-(4-cyanophenyl)ureido)phenyl)-4-oxo-1,4-dihydroquinoline-3-carboxamide], the melting point is > 300 °C. The same molecule returned a half-maximal inhibitory concentration (IC50) against VEGFR-2 of 1603 ± 0.06 nM. The IC50 in the data set on HepG2 cells [1] was found to be 43.1 ± 2.59 µM.

With `Cc1ccccc1NC(=O)Nc1ccc(NC(=O)c2c[nH]c3ccc(Cl)cc3c2=O)cc1` [Compound 10d, 6-Chloro-4-oxo-N-(4-(3-(o-tolyl)ureido)phenyl)-1,4-dihydroquinoline-3-carboxamide], the melting point was > 300 °C. On VEGFR-2, this molecule yielded a 50% inhibitory concentration (IC50) of 69 ± 0.02 nM. Moreover, the IC50 with HepG2 cells [1] came to 1.07 ± 0.06 µM.

For `Cc1cccc(NC(=O)Nc2ccc(NC(=O)c3c[nH]c4ccc(Cl)cc4c3=O)cc2)c1` [Compound 10c, 6-Chloro-4-oxo-N-(4-(3-(m-tolyl)ureido)phenyl)-1,4-dihydroquinoline-3-carboxamide], the melting point is > 300 °C. This molecule also displayed an IC50 against VEGFR-2 of 169 ± 0.01 nM. For the same molecule, the half-inhibitory concentration (IC50) in the data set with HepG2 cells [1] amounted to 4.14 ± 0.25 µM.

Regarding `Cc1ccc(NC(=O)Nc2ccc(NC(=O)c3c[nH]c4ccc(Cl)cc4c3=O)cc2)cc1` [Compound 10b, 6-Chloro-4-oxo-N-(4-(3-(p-tolyl)ureido)phenyl)-1,4-dihydroquinoline-3-carboxamide], the melting point is > 300 °C. Further, the IC50 at VEGFR-2 came to 578 ± 0.03 nM. In the data set on HepG2 cells [1], the IC50 was found to be 50.8 ± 3.16 µM.

Consider `O=C(Nc1ccc(NC(=O)c2c[nH]c3ccc(Cl)cc3c2=O)cc1)Nc1cccc(C(F)(F)F)c1` [Compound 10f, 6-Chloro-4-oxo-N-(4-(3-(3-(trifluoromethyl)phenyl)ureido)phenyl)-1,4-dihydroquinoline-3-carboxamide], for which the melting point is > 300 °C. The molecule also had an IC50 on VEGFR-2 of 104.5 ± 0.005 nM. The IC50 in the data set with HepG2 cells [1] worked out at 62 ± 3.87 µM.

As to `O=C(Nc1ccc(F)cc1)Nc1ccc(NC(=O)c2c[nH]c3ccc(F)cc3c2=O)cc1` [Compound 10n, 6-Fluoro-N-(4-(3-(4-fluorophenyl)ureido)phenyl)-4-oxo-1,4-dihydroquinoline-3-carboxamide], the melting point is > 300 °C. The same molecule displayed an IC50 at VEGFR-2 of 257 ± 0.01 nM. Also, the half-inhibitory concentration (IC50) in the data set on HepG2 cells [1] was determined as 2.88 ± 0.14 µM.

Take `Cc1ccc(NC(=O)Nc2ccc(NC(=O)c3c[nH]c4ccc(F)cc4c3=O)cc2)cc1` [Compound 10k, 6-Fluoro-4-oxo-N-(4-(3-(p-tolyl)ureido)phenyl)-1,4-dihydroquinoline-3-carboxamide]: the melting point is > 300 °C. At VEGFR-2, this molecule registered an IC50 of 2226 ± 0.09 nM. Also, in the data set on HepG2 cells [1], the IC50 is 34.2 ± 2.06 µM.

In the case of `Cc1ccccc1NC(=O)Nc1ccc(NC(=O)c2c[nH]c3ccc(F)cc3c2=O)cc1` [Compound 10m, 6-Fluoro-4-oxo-N-(4-(3-(o-tolyl)ureido)phenyl)-1,4-dihydroquinoline-3 carboxamide], the melting point is > 300 °C. This molecule displayed an IC50 on VEGFR-2 of 181 ± 0.01 nM. Moreover, the 50% inhibitory concentration (IC50) in the data set with HepG2 cells [1] was 13 ± 0.75 µM.

In the case of `CC(C)c1ccc(NC(=O)Nc2ccc(NC(=O)c3c[nH]c4ccc(Cl)cc4c3=O)cc2)cc1` [Compound 10i, 6-Chloro-N-(4-(3-(4-isopropylphenyl)ureido)phenyl)-4-oxo-1,4-dihydroquinoline-3-carboxamide], the “Selectivity index (SI)” value in data set [2] amounted to 13.13. Moreover, in data set [3], the CC50 at 48 h was 21 µM. In addition, the “Induction of Bax protein expression compared to negative control” value with Bax is given as “up to 20 folds”. Moreover, on VEGFR-2, the “Fold increase in VEGFR-2 inhibitory activity compared to para methyl substituted derivatives 10b and 10k” value is given as “more than 16 fold”; it took 36 ± 0.01 nM to reach half-maximal inhibition (IC50). For the same molecule, in the data set on VEGFR-2 gene, the “Decrease of VEGFR-2 gene expression compared to untreated cells” value is reported as 84%. Also, the “Induction of Caspase-7 protein expression compared to negative control” value with Caspase-7 is listed as ≤ 6 folds. Further, in the data set on HepG2 cells [4], the “Freq G1” value is “***2.067 ± 0.189”, the “Freq G2” value is “***49.80 ± 1.466”, the “Freq S” value is listed as “***7.920 ± 0.2117” and the “Freq Sub-G1” value is on record as “***20.80 ± 0.7102”. Besides, the IC50 in the data set on HepG2 cells [1] came to 1.6 ± 0.17 µM.
